Data reported in ChEMBL document CHEMBL1151717, “In vivo active aldosterone synthase inhibitors with improved selectivity: lead optimization providing a series of pyridine substituted 3,4-dihydro-1H-quinolin-2-one derivatives” (J Med Chem, 2008).

Key:
CYP17 = molecular target: T1, CYP17 (Homo sapiens, UniProt P05093); test: in vitro; settings: human CYP17 expressed in Escherichia coli
T1 sequence (P05093 whole entry): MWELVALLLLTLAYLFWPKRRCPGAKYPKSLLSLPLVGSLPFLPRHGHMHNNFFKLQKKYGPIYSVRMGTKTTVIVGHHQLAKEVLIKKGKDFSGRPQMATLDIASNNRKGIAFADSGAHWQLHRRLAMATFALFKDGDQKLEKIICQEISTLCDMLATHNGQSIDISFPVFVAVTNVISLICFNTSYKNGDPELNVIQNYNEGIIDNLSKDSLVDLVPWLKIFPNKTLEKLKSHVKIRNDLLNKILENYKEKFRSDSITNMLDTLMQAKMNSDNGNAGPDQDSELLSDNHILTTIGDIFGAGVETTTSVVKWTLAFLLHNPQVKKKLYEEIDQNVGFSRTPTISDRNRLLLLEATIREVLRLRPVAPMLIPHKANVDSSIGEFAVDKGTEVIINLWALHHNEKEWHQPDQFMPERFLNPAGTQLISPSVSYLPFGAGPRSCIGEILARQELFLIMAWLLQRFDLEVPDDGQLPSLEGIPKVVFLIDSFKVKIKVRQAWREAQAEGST
Description: Inhibition of human CYP17 expressed in Escherichia coli at 2.5 uM

CYP1A2 = molecular target: T2, CYP1A2 (Homo sapiens, UniProt P05177); test: Inhibition of human recombinant CYP1A2 expressed in baculovirus-infected insect microsomes at 2 uM; assay type: ADME, Microsome
T2 sequence (P05177 whole entry): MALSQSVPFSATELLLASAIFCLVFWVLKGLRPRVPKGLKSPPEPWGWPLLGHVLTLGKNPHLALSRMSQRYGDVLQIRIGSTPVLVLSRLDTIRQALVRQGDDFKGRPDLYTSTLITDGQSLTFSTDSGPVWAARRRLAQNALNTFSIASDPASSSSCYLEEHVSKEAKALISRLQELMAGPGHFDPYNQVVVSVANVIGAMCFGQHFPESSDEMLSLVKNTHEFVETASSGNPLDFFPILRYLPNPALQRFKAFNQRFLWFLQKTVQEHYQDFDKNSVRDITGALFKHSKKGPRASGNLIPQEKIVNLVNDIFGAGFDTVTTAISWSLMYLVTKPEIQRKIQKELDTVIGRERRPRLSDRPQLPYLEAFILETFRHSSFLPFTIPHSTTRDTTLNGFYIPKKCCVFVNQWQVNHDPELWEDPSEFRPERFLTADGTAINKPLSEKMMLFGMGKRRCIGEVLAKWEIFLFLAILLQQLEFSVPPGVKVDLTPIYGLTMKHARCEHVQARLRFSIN

[1] = molecular target: T3, Cytochrome P450 11B1, mitochondrial (Homo sapiens, UniProt P15538)
T3 sequence (P15538 whole entry): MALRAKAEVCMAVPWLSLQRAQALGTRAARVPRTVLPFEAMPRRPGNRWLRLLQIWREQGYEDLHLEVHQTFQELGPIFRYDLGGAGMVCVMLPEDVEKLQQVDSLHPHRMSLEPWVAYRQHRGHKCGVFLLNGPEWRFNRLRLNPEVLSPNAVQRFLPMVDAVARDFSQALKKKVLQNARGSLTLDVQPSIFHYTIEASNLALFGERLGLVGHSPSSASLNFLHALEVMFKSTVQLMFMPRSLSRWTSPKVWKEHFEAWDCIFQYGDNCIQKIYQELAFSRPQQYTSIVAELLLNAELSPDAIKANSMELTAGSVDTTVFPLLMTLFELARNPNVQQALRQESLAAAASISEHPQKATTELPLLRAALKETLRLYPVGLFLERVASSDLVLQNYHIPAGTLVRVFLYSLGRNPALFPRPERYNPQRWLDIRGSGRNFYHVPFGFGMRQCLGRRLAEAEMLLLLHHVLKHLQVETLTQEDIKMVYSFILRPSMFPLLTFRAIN

CYP19 (aromatase) = molecular target: T4, CYP19 (aromatase) (Homo sapiens, UniProt P11511); test: Inhibition of human placental CYP19 at 500 nM; assay type: functional
T4 sequence (P11511 whole entry): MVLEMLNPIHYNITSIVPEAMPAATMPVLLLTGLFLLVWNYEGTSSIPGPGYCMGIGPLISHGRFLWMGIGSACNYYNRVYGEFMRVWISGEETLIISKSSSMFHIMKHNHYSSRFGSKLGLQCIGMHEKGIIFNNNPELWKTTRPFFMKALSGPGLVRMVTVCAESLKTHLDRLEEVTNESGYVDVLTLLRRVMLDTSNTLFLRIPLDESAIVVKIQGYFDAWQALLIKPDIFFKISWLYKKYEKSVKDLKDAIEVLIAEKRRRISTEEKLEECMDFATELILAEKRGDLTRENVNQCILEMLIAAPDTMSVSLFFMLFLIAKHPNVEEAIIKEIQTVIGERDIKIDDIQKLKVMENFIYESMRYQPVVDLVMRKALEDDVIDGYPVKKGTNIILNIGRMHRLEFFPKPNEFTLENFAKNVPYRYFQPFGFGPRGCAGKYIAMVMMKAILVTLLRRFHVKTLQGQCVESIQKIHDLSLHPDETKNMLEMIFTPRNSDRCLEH

[2] = molecular target: T5, Cytochrome P450 11B2, mitochondrial (Homo sapiens, UniProt P19099)
T5 sequence (P19099 whole entry): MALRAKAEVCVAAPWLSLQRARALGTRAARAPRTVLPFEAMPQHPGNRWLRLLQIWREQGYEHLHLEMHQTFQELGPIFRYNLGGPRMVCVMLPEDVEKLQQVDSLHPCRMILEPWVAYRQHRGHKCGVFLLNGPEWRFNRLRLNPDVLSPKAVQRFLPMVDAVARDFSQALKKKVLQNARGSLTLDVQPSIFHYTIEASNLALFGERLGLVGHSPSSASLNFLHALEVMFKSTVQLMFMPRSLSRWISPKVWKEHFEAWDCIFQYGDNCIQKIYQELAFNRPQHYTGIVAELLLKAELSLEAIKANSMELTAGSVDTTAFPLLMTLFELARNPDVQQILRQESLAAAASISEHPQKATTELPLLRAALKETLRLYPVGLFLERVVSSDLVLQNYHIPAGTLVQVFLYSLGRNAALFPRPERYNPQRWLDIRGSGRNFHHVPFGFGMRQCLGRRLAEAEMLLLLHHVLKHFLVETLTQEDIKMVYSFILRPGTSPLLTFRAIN

Cytochrome P450 1A2 = molecular target: T6, Cytochrome P450 1A2 (Homo sapiens, UniProt P05177)
T6 sequence (P05177 whole entry): T2 sequence (P05177 whole entry)

Homo sapiens = species on record: Homo sapiens; test: Selectivity ratio, IC50 for human CYP11B1 to IC50 for human CYP11B2
[3] = molecular target: T5, Cytochrome P450 11B2, mitochondrial; test: Inhibition of human CYP11B2 expressed in hamster V79 MZh cells at 500 nM; assay type: cell-based; settings: V79MZh
Aromatase = molecular target: T7, Aromatase (Homo sapiens, UniProt P11511); test: Inhibition of human placental CYP19; assay type: functional
T7 sequence (P11511 whole entry): T4 sequence (P11511 whole entry)

Cytochrome P450 2C19 = Cytochrome P450 2C19 (Homo sapiens, UniProt P33261); test: Inhibition of human recombinant CYP2C19 expressed in baculovirus-infected insect microsomes; assay type: ADME, Microsome
Cytochrome P450 2C9 = Cytochrome P450 2C9 (Homo sapiens, UniProt P11712); test: Inhibition of human recombinant CYP2C9 expressed in baculovirus-infected insect microsomes; assay type: ADME, Microsome
Cytochrome P450 2B6 = molecular target: T8, Cytochrome P450 2B6 (Homo sapiens, UniProt P20813); test: Inhibition of human recombinant CYP2B6 expressed in baculovirus-infected insect microsomes; assay type: ADME, Microsome
T8 sequence (P20813 whole entry): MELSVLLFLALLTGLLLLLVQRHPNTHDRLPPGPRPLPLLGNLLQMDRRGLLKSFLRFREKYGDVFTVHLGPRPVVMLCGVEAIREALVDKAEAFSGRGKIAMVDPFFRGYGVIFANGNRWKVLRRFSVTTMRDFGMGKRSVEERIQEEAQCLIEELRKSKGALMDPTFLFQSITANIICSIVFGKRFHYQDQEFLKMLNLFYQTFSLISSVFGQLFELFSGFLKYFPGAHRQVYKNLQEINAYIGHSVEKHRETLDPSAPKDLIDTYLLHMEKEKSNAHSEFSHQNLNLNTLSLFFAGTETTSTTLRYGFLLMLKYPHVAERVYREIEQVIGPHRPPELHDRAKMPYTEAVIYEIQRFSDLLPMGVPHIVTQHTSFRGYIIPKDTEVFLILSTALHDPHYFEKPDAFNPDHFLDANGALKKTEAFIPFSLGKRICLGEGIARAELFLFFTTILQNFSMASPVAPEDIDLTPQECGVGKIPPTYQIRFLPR

Cytochrome P450 3A4 = Cytochrome P450 3A4 (Homo sapiens, UniProt P08684); test: Inhibition of human recombinant CYP3A4 expressed in baculovirus-infected insect microsomes; assay type: ADME, Microsome
Cytochrome P450 2D6 = Cytochrome P450 2D6 (Homo sapiens, UniProt P10635); test: Inhibition of human recombinant CYP2D6 expressed in baculovirus-infected insect microsomes; assay type: ADME, Microsome
[4] = Cmax in Wistar rat at 5 mg/kg, po by cassette dosing; assay type: ADME, organism-based; parameters: dose 5 mg/kg, route oral; settings: in vivo
[5] = Protein binding in rat plasma at 3 uM after 1 hr; assay type: ADME, cell-free; settings: read-out: PPB (converted)
[6] = Terminal half life in Wistar rat at 5 mg/kg, po by cassette dosing; assay type: ADME, organism-based; parameters: dose 5 mg/kg, route oral; settings: in vivo, read-out: beta t1/2 (converted)
[7] = AUC (0 to infinity) in Wistar rat at 5 mg/kg, po by cassette dosing; assay type: ADME, organism-based; parameters: time infinity, dose 5 mg/kg, route oral; settings: plasma
[8] = Tmax in Wistar rat at 5 mg/kg, po by cassette dosing; assay type: ADME, organism-based; parameters: dose 5 mg/kg, route oral; settings: in vivo
[9] = Protein binding in human plasma at 3 uM after 1 hr; assay type: ADME, cell-free; settings: read-out: PPB (converted)

Cytochrome P450 2C9, sequence (P11712 whole entry): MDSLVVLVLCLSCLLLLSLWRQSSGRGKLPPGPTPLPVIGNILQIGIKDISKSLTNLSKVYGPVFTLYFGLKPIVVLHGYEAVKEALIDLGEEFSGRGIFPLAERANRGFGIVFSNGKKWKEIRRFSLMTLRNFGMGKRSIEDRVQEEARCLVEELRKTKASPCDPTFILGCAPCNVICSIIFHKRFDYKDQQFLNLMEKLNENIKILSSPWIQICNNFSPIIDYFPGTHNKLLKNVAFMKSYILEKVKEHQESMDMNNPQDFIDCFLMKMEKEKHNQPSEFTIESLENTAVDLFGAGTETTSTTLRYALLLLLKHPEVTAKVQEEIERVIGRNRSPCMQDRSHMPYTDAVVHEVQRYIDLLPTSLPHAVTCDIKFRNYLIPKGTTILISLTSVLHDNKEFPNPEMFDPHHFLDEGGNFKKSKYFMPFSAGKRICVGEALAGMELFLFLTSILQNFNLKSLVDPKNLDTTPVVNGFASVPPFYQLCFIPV
Cytochrome P450 2C19, sequence (P33261 whole entry): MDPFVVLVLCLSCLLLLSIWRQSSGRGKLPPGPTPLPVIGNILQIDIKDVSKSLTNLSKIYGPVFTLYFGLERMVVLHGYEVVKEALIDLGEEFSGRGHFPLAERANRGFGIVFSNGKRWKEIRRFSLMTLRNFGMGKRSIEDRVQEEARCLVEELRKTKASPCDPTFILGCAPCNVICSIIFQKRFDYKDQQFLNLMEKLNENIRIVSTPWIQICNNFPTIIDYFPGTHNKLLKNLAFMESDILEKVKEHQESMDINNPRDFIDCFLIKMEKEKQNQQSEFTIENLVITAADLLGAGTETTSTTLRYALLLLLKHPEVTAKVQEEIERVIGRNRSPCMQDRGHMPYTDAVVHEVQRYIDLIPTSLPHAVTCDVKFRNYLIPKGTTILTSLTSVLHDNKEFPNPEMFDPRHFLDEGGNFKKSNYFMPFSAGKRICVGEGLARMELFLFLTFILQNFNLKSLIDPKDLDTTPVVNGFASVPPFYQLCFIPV
Cytochrome P450 2D6, sequence (P10635 whole entry): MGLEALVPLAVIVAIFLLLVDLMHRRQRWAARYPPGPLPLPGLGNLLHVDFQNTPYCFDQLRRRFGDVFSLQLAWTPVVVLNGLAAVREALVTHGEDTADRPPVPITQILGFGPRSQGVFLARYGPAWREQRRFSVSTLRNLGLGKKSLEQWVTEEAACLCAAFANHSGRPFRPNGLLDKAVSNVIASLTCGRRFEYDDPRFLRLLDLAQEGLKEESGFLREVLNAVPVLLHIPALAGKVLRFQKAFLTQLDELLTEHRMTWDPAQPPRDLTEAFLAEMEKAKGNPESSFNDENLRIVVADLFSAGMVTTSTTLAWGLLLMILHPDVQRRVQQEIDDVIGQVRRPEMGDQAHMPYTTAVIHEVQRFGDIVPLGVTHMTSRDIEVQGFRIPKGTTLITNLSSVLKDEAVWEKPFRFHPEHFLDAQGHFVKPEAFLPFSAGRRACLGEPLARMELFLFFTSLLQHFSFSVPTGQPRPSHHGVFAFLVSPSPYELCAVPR
Cytochrome P450 3A4, sequence (P08684 whole entry): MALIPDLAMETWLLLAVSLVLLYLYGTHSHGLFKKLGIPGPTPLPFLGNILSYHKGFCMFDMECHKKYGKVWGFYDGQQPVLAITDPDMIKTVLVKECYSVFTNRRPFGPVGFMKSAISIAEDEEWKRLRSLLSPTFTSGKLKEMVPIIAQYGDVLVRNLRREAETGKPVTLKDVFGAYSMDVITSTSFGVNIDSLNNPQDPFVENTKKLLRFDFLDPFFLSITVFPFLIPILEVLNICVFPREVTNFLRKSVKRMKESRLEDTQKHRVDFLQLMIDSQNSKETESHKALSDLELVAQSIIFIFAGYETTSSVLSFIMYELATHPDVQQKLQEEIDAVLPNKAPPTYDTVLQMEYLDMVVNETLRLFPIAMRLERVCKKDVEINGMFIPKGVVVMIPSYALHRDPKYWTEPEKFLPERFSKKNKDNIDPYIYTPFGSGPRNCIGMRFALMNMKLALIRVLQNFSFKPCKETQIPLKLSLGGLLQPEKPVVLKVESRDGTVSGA

inhibition at 2.5 µM (CYP17)	inhibition at 2 µM (CYP1A2)	IC50 [1]	inhibition at 0.5 µM (CYP19 (aromatase))	IC50 [2]	IC50 (Cytochrome P450 1A2)	Ratio IC50 (Homo sapiens)	inhibition at 0.5 µM [3]	SMILES	further results
< 5%	36%	5180 nM	63%	22 nM	3480 nM	–	–	CCN1C(=O)CCc2cc(-c3cccnc3)ccc21	–
7%	14%	–	17%	–	30600 nM	–	–	O=C1CCc2cc(-c3cccnc3)cc(Cl)c2N1	–
–	–	1980 nM	–	29 nM	–	68	82%	c1cncc(-c2ccc3c(c2)CCCC3)c1	–
–	25%	–	–	–	–	–	–	O=C1Cc2cc(-c3cccnc3)ccc2N1	–
–	57%	–	–	–	1550 nM	–	–	O=C1CCc2cc(-c3cccnc3)ccc21	IC50 (Cytochrome P450 2C19; read-out: IC50): 147000 nM; Cmax [4]: 300 ng/mL; fraction unbound at 1 h, 3 µM [5]: 0.76; half-life [6]: 2.4 h; IC50 (Cytochrome P450 2C9): 123000 nM; IC50 (Cytochrome P450 2B6): < 50000 nM; AUC(0-inf) [7]: 3180 ng·h/mL; Tmax [8]: 4 h; fraction unbound at 1 h, 3 µM [9]: 0.78
8%	53%	742 nM	54%	2.6 nM	1790 nM	–	–	CN1C(=O)CCc2cc(-c3cccnc3)ccc21	IC50 (Cytochrome P450 2C19; read-out: IC50): 122000 nM; Cmax [4]: 86 ng/mL; half-life [6]: 2.3 h; IC50 (Cytochrome P450 2C9): 125000 nM; IC50 (Cytochrome P450 2B6): < 50000 nM; AUC(0-inf) [7]: 659 ng·h/mL; Tmax [8]: 6 h; IC50 (Cytochrome P450 2D6): < 200000 nM
72%	77%	580 nM	< 5%	3.1 nM	640 nM	–	–	S=C1CCc2cc(-c3cccnc3)ccc2N1	–
–	–	525 nM	–	12 nM	–	–	–	O=C1CSc2cc(-c3cccnc3)ccc2N1	–
49%	74%	4920 nM	23%	44 nM	600 nM	112	86%	OC1CCc2cc(-c3cccnc3)ccc2C1 (stereo not given)	–

The remaining lines, values behind:

SMILES	inhibition at 2.5 µM (CYP17)	inhibition at 2 µM (CYP1A2)	IC50 [1]	inhibition at 0.5 µM (CYP19 (aromatase))	IC50 [2]	IC50 (Cytochrome P450 1A2)	Ratio IC50 (Homo sapiens)	inhibition at 0.5 µM [3]	further results
COc1cncc(-c2ccc3c(c2)CCC(=O)N3C)c1	< 5%	20%	–	5%	–	16500 nM	–	–	–
N#Cc1ccc2cc(-c3cccnc3)ccc2c1	73%	–	–	–	–	–	–	–	IC50 (Aromatase): > 36000 nM
COC1CCc2cc(-c3cccnc3)ccc2C1 (stereo not given)	44%	80%	–	22%	3.3 nM	–	347	97%	IC50 (Cytochrome P450 2C19): < 200000 nM; IC50 (Cytochrome P450 2C9): 16300 nM; IC50 (Cytochrome P450 2B6): 47400 nM; IC50 (Cytochrome P450 3A4): 12200 nM; IC50 (Cytochrome P450 2D6): < 200000 nM
S=C1CCc2cc(-c3cccnc3)cc(Cl)c2N1	–	–	769 nM	–	4.2 nM	–	183	97%	–
COc1cncc(-c2ccc3c(c2)CCC(=O)N3)c1	12%	25%	339 nM	< 5%	2.7 nM	5240 nM	126	91%	–
CCOC1CCc2cc(-c3cccnc3)ccc2C1 (stereo not given)	–	73%	–	–	–	620 nM	–	–	–
N#CC1=Cc2ccc(-c3cccnc3)cc2CC1	74%	90%	290 nM	< 5%	1.6 nM	180 nM	181	97%	–
CN1CCOc2cc(-c3cccnc3)ccc21	–	–	5970 nM	–	101 nM	–	59	71%	–
COc1ccc2cc(-c3cccnc3)ccc2c1	72%	–	–	–	–	–	–	–	IC50 (Aromatase): 600 nM
c1cncc(-c2ccc3ccccc3c2)c1	40%	99%	–	–	–	–	–	–	–
CN1C(=O)CCc2cc(-c3cncc4ccccc34)ccc21	–	–	6.9 nM	–	0.1 nM	–	–	–	–
N#Cc1ccc(C2CCCc3cncn32)cc1 (stereo not given) [FADROZOLE]	–	–	–	–	–	–	–	–	Cmax [4]: 471 ng/mL; half-life [6]: 3.2 h; AUC(0-inf) [7]: 3210 ng·h/mL
N#CC1CCc2cc(-c3cccnc3)ccc2C1 (stereo not given)	–	72%	–	–	–	660 nM	–	–	–
